The text below walks through data of US20080161278A1, “2-Azetidinyl-4-(1H-Pyrazol-3-Ylamino) Pyrimidines as Inhibitors of Insulin-Like Growth Factor-1 Receptor Activity” (ASTRAZENECA AB, priority 2005, published 2008).

The test system of this assay is murine fibroblasts (NIH3T3) over-expressing human IGF-1 receptor. As to the kind of experiment: Test (c): inhibition of IGF-stimulated cell proliferation (BrdU incorporation). It is filed as cell-based. The note with it: Mus musculus. Here is the method:
c) Inhibition of IGF-Stimulated Cell Proliferation
The construction of murine fibroblasts (NIH3T3) over-expressing human IGF-1 receptor has been described by Lammers et al (EMBO J, 8, 1369-1375, 1989). These cells show a proliferative response to IGF-I which can be measured by BrdU incorporation into newly synthesised DNA. Compound potency was determined as causing inhibition of the IGF-stimulated proliferation in the following assay:
Compounds are initially dissolved in DMSO to 10 mM, followed by dilutions in DMEM+1% FCS+glutamine to give a range from […] in 1-0.00045% DMSO final concentration in assay well.
Exponentially growing NIH3T3/IGFR cells were harvested and seeded in complete growth medium into a flat-bottomed 96 well tissue culture grade plate (Costar 3525) at 1.2×10^4 cells per well in a volume of 100 μl.
Growth medium was carefully removed from each well using a multi-channel pipette. Wells were carefully rinsed three times with 200 μl with HBSS. 100 μl of starvation medium was added to each well and the plate was re-incubated for 24 hours.
50 μl of a 4× concentrate of test compound was added to appropriate wells. Cells were incubated for 30 minutes with compound alone before the addition of IGF. […]
The incorporation of BrdU in the cells (after a 4 h incorporation period) was assessed using the BrdU Cell Proliferation Elisa according to the manufacturer's protocol.
(In general: Uptake of a labelled nucleoside into DNA is a usual measure of proliferation.)

Broadly, the IC50 is the concentration that inhibits the measured activity by half. Lower therefore signals inhibition by little substance. Compound `Cc1cc(Nc2cc(C)[nH]n2)nc(N2CCC2c2cc(-c3ccccn3)no2)n1` (centres unmarked) [Example 4, 6-Methyl-2-{2-[3-(pyrid-2-yl)isoxazol-5-yl]azetidin-1-yl}-4-(5-methyl-1H-pyrazol-3-ylamino)pyrimidine] returned an IC50 of 0.06 µM. That is a double-digit nanomolar value.

Turning to `Cc1cc(Nc2cc(N3CCOCC3)nc(N3CCC3c3cc(-c4ccccn4)no3)n2)n[nH]1` (centres unmarked) [Example 2, 6-Morpholino-2-{2-[3-(pyrid-2-yl)isoxazol-5-yl]azetidin-1-yl}-4-(5-methyl-1H-pyrazol-3-ylamino)pyrimidine], half-maximal inhibition (IC50) was put at 0.04 µM.
